Data taken from US20010005714A1, “AMPHIPATHIC MOLECULES AS CHOLESTEROL AND OTHER LIPID UPTAKE INHIBITORS” (priority 1996, published 2001).

What was measured:
[1] = system: rabbit BBMV; test: Dose response of cholesteryl oleate uptake from egg PC SUVs by rabbit BBMV (FIG. 4B); assay type: biochemical; conditions: donor 0.05 mg/ml total lipid, acceptor 1.7 mg protein/ml, 20 min at 25° C., curve fits of FIG. 4B
Description: Small unilamellar vesicles of egg phosphatidylcholine containing 1 mol % cholesteryl oleate and a trace amount of (1,2-^3H2 (N)]-cholesteryl oleyl ether (37 Ci/mmol, from Amersham, UK) as the donor were made as described in Example 1 and BBMVs as the acceptor were prepared from rabbit small intestine (see Example 1). Donor and acceptor both dispersed in Tris/NaCl buffer (0.05 M Tris HCl pH 7.4, 0.15 M NaCl, 0.02% NaN3) and a solution of human apo A-1 or sheep HDL in the same buffer were mixed at time zero (total volume: 0.1 ml) so that the final concentrations of donor and acceptor were 0.05 mg/ml total lipid and 1.7 mg protein/ml, respectively. After incubation of the suspension of donor and acceptor in the presence of inhibitor for 20 min. at 25° C., the reaction was stopped by dilution with 2 vol. of Tris/NaCl buffer. Donor and acceptor were separated by centrifugation in the airfuge at 115,000 g for 2 min. at […]., and the radioactivities in the supernatant containing donor vesicles and in the pellet containing BBMVs were determined in a BECKMAN™ LS 7500 scintillation counter. […]
Experimental conditions were as described for FIG. 4A. The cholesterol absorption activity of BBMVs measured in the absence of inhibition was taken as 100% and the loss in activity observed in the presence of inhibitor is expressed as %. […]

[2] = system: small intestine of Sprague-Dawly rats; test: In vivo cholesterol absorption in the small intestine of rats; conditions: ApoA-1 added to the diet
Excerpt: The biological relevance of the inhibitory effect observed in vitro is confirmed by an in vivo experiment showing that cholesterol absorption in the small intestine of Sprague-Dawly rats can be inhibited by the amphipathic principle by more than 80%. ApoA-1 added to the diet was used as the inhibitor, because this protein could be purified from human serum in sufficient quantity. Bases or the experimental evidence presented we ppropose that the inhibitory effect on cholesterol uptake is not restricted to particular amphipathic molecules. It is likely that the chemical nature of the amphipathic compound is of secondary importance and that the geometry and the polarity of the compound are the decisive determinants. The results presented here have important implications since amphipathic molecules belonging to any class of biological compounds such as lipids, proteins or carbohydrates might inhibit cholesterol uptake by the brush border membrane.

[3] = taken from Chapman (1986), for comparison; cited from earlier work
[4] = system: brush border membrane vesicles (BBMV); test: IC50 of cholesteryl oleate uptake at the brush border membrane (Example 6); assay type: biochemical, rabbit; conditions: donor 0.1 mg total lipid/ml, acceptor 2 mg protein/ml; 20 min at 25° C.
Description: An appropriate amount of inhibitor dissolved in 84.5 μl buffer (0.05 M Tris pH 7.4, 0.15 M NaCl) is mixed in an Eppendorf tube at time zero with 5 μl of a dispersion of donor and 10.5 μl of a dispersion of acceptor (i.e. brush border membrane vesicles (BBMV)) in the same buffer. The final concentration of the donor vesicles was 0.1 mg total lipid/ml, that of the acceptor was 2 mg protein/ml. The resulting mixture was incubated for 20 min at 25° C., and the reaction was stopped by adding 60 μl of the incubation medium to 120 μl ice-cold bufferin an airfuge tube. The diluted dispersion was immediately centrifuiaed in the airfuge at […] for 2 min. at 4° C. to separate donor vesicles from BBMV. Two 60 μl aliquots of the donor (=supernatant) were counted in a Beckman LS-7500 liquid scintillating counter to determine the radioactivity remaining in tbe donor.
Small unilamellar egg phosphatidycholine (PC) vesicles containing 1 mol % of cholesterol oleate and a trace amount of ^3H-cholesterol oleyl ether were made by dissolving the appropriate amounts of the lipids in CHCl3/CH3OH, (2:1, by vol.), taking the solution to dryness on a rotary evaporator and drying the residue in vacuo. The dried lipid film was dispersed in the appropriate volume of buffer by hand-shaking. The lipid dispersion was subjected to tip sonication as described in Brunner et al, J. Biol. Chem. 253 7538-7546 (1978). The resulting donor dispersion in buffer was centrifuged in the airfuge at 100000 g for 2 min at […]. Only the top 80% of the donor dispersion after centrifugation was used in the lipid uptake experiment.
BBMV were prepared from frozen rabbit small intestine according to Hauser et al (Biochim. Biophys. Acta 602 567-577 (1980)). Prior to use in the uptake experiment determining IC50 values the BBMV were washed to remove any free protein liberated from the BBM. To this end the BBMV dispersion was diluted with buffer 1:1 in an airfuge tube, and the diluted dispersion was centrifuged in the airfuga at 100000 g for 2 min at […]. The supernatant was is carefully decanted, the pellet was resuspended in buffer to the original volume of the BBMV dispersion, and the dispersion was homogenized. […]

[5] = system: rabbit BBMVs; test: Sterol uptake inhibition using mixed bile salt micelles as donors; assay type: biochemical; conditions: 1.56 μM human apo A-1 or 1.98 μM fr.28-PBE94; 5 mM taurocholate, 0.6 mM oleic acid, 2 μM cholesterol; 10 min at 25° C.
Description: Since bile salt micelles are the most important lipid carriers in the small intestine, it is relevant to measure sterol uptake inhibition using mixed bile salt micelles as the donor. Donor micelles made of 50 mM taurocholate, 6 mM oleic acid and 20 μM radiolabelled cholesterol were prepared as follows: the lipids were mixed at these concentrations in 2:1 chloroform:methanol and the organic solvent was removed by rotary evaporation. The resulting lipid film was dried under high vacuum for at least 1 hour. The dried film was dispersed in the appropriate amount of Tris/NaCl to yield the desired micellar concentration. Acceptor rabbit BBMVs, prepared as described in Example 2, were mixed with either 1.56 μM human apo A-1 or 1.98 μM fr.28-PBE94. Donor mixed micelles were added to the acceptor/inhibitor dispersion to a final concentration of 5 mM taurocholate, 0.6 mM oleic acid and 2 μM radiolabelled cholesterol and the mixture incubated for 10 min at 25° C. […] Radioactivities in both pellet and supernatant were measured and results evaluated as described in Example 2; incubation with apo A-1 yielded 12% of the inhibitory activity measured at the same inhibitor concentration using SUVs as donor, and incubation with fr.28-PBE94 yielded 23% of the inhibitory activity measured at the same inhibitor concentration using SUVs as donor.

[6] = Denaturation by 10% TCA or boiling/chilling: protein remaining in supernatant; assay type: physicochemical
Excerpt: Since the characterisation of sheep apo A-1 has not been reported yet, the physical characteristics of human and rabbit apo A-1 are reported for comparison (Chapman, Academic Press, Inc. San Diego, New York, Boston, London, Sydney, Tokyo. Toronto 70-143 1986)). Fr.28-PBE94 was subjected to N-terminal amino acid analysis. The first 29 amino acids of fr.28-PBE94 were 79.3% identical with rat apo A-1, 69.0% with rabbit apo A-1, 86.2% with bovine apo A-1 and 65.0% with human apo A-1. Fr.28-PBE94 cross-reacted with mouse monoclonal anti-human apo A-1 antibodies in Western blotting experiments. […] This is the floating density of high-density lipoproteins. After subjecting fr.28-PBE94 to the guanidine HCl treatment according to Nichols et al. (Nichols et al., Biochimica et Biophysica Acta 446 226-239 (1976)), fr.28-PBE94 was delipidated, showing the same behaviour as human apo A-1. […] Denatured proteins were removed by centrifugation, and protein and inhibitory activity remaining in the supernatant were determined (Table 4).

[7] = system: normal human BBMV; test: [14C]Cholesterol uptake from egg PC vesicles by normal human duodenal BBMV; assay type: biochemical; conditions: human duodenal BBMV
Description: Biopsy samples from human duodenum, 20 to 30 mg of wet tissue each, were suspended in 200 μl buffer (12 mM Tris HCl pH 7.2, 300 mM mannitol, 5 mM EGTA, 1 mM phenylmethylsulfonyl fluoride), frozen in liquid nitrogen and stored at −80° C. prior to use. BBMV were prepared by Mg^+2 precipitation (Hauser et al, Biochim. Biophys. Acta 602 567-577 (1980)) as described in detail by Booth et al (Lancet 1 1066-1069 (1985)). Proteinase K treatment of the BBMV was carried out according to Thurnhofer and Hauser (Biochim. Biophys. Acta 1024 249-262 (1990)). […] Small unilamellar phesrholipid vesicles were prepared by tip sonication (Schulthess, Biochemistry 33 4500-4508 (1994)).
(I) Egg PC small unilamellar vesicles containing […] (^14C] cholesterol and BBMV both dispersed in 10 mM Tris-HCl pH 7.2, 0.15 M NaCl, 5 mM EDTA were incubated at room temperature. After timed intervals phospholipid vesicles and BBMV were separated by centrifugation at 115000 g for 2 min in a Beckman airfuge. The radioactivities present in pellet and supernatant were determined by counting aliquots in a Beckman LS 7500 liquid scintillatior counter. Fusion of egg PC small unilamellar vesicles and BBMV as a possible mechanism of cholesterol uptake was ruled out as discussed in detail in previous studies (Thurnhofer and Hauser, Biochemistry 29 2142-2148 (1990); Compassi, Biochemistry 34 16473-16482 (1995) and Schulthess, J. Lipid. Res. 37 2405-2419 (1996)).
The experimental data were computer-fitted using the following equation valid for single-exponential exchange reactions: X=X∞+[XO−X∞]e^-k1^[(a+b)/a]t, where XO, X and X∞represent the fractions of the labelled lipid in the donor at times 0, t and at equilibrium, respectively. K1 is the pseudo-first-order rate constant of the reaction and a and b are the lipid pools of acceptor and donor, respectively (McKay, Nature 142 997-998 (1938) and Mutsch et al, Biochemistry 25 2134-2140 (1986).
Kinetic measurements were also carried out in the presence of inhibitors; synthetic peptides or apolipoproteins were added to the […] of donor and acceptor vesicles. Cholesterol uptake by native and proteinase K treated BBMV was determined in the presence of increasing concentrations of Ac-18A-NH2, the difference between cholesterol uptake by native and proteinase K treated BBMV is referred as protein-mediated cholesterol uptake in FIG. 6. The IC50 values were determined according to Methods Enzymol. 37 3-22 (1975).

IC50 [4] [µM]	IC50 (μg/mL) of cholesteryl oleate uptake at the brush border membrane [4] [µg/mL]	Molecule	IC-50 [1] [µg/mL]	inhibition of cholesterol absorption in the small intestine [2]	isoelectric point [3]	inhibitory activity with mixed bile salt micelles as donor, as % of that measured at the same inhibitor concentration using SUVs as donor [5] [%]	protein (%) remaining in the supernatant ([6]; after TCA precipitation (10% TCA)) [%]	protein (%) remaining in the supernatant ([6]; after boiling/chilling (4 cycles, 5 min each)) [%]	inhibition of protein-mediated cholesterol uptake (in words) [7]
0.5 ± 0.1	14 ± 3	human apo A-1: human apolipoprotein A-1, prepared from human HDL by delipidation and ion exchange chromatography	25	more than 80%	5.52	12	0	27	–
3.8 ± 0.3	66 ± 5	apo A-II: human apolipoprotein A-2	66	–	–	–	–	–	–
–	–	Ac-Asp-Trp-Leu-Alα—Lys-Asp-Tyr-Phe-Lys-Lys-Alα —Leu-Val-Glu-Glu-Phe-Alα—Lys-NH2 [scrambled Ac-18A-NH2, reference compound]	–	–	–	–	–	–	inactive
–	–	rabbit apo A-1: rabbit apolipoprotein A-1, literature values for comparison (protein, UniProt P09809 25-266, looked up, Apolipoprotein A-I, rabbit apolipoprotein A-1, literature values for comparison) Apolipoprotein A-I: DEPRSSWDKIKDFATVYVDTVKDSGREYVAQFEASAFGKQLNLKLLDNWDSLSSTVSKLQEQLGPVTQEFWDNLEKETEGLREEMNKDLQEVRQKVQPYLDEFQKKWQEEVERYRQKVEPLGAELRESARQKLTELQEKLSPLAEELRDSARTHVDTLRTKLAPYSNELQQRLAARLESIKEGGGASLAEYQAKAREHLSVLSEKARPALEDLRQGLLPVLESFKASVQNVLDEATKKLNTQ	–	–	5.50	–	–	–	–
